Measurements published in patent US20190092792A1, “VINORELBINE MONOTARTRATE AND ITS PHARMACEUTICAL USE” (priority 2016, published 2019).
Where two headings read alike, the source gives them in different places.

How the values were obtained:
[1] = xenon lamp 300-800 nm
Description: The term “photostability”, as used herein, is to be understood such that a sample of the product to be analyzed in a quantity of about 14 mg is placed in a 10 ml light glass volumetric flask and is exposed in a photo chamber to a xenon lamp (wave length 300-800 nm; fluence rate 250-765 W/m2). The amount of the known photo-degradation product 3,6-epoxy vinorelbine is determined after a specific amount of time of exposure by means of HPLC (High-performance liquid chromatography). The described photostability test procedure corresponds to the photostability determining method described in European Pharmacopoeia 7.0 using exposure time 2 hours.
Furthermore, a comparative photo-degradation analysis of crystalline vinorelbine monotartrate hydrate, according to the present invention and vinorelbine bitartrate was performed.
The samples (about 14 mg each) were placed in 10 ml light glass volumetric flasks and exposed in a photo chamber to a xenon lamp (wave length 300-800 nm; fluence rate 250-765 W/m^2). The amount of the known photo-degradation product 3,6-epoxy vinorelbine was determined at various time points by means of HPLC.

[2] = Comparable stressing stability study at 60° C. (total degradation impurities by HPLC); type: physicochemical; settings: for Total degradation impurities: 60° C.
Description: (§1) The degradation impurities are determined after a specific amount of time of incubation by means of HPLC.
(§2) The term “degradation impurities”, as used herein, is to be understood such a sample of the relevant product is subjected to HPLC analysis and calculation of the content of impurities in Vinorelbine is performed according to the method described in European Pharmacopoeia 7.0.
(§3) HPLC analysis and calculation of the content of impurities in Vinorelbine were performed according to the method described in European Pharmacopoeia 7.0.

[3] = Thermostability of vinorelbine monotartrate solid forms at 5° C., 25° C. and 40° C. (degradation impurities by HPLC); type: physicochemical; settings: for Degradation products (%) 3,6-epoxy vinorelbine / Degradation products (%) Total / Degradation products (%) vinorelbine N-oxide: amorphous form, 40° C.
Description: as §1, §2
The term “degradation”, as used herein, is to be understood to relate to the total amount of identified (e.g. 3,6-epoxy vinorelbine, 4-O-deacetylvinorelbine and vinorelbine N-oxide) and unidentified degradation products that form in a sample after a particular incubation period.
as §3
Three further representative batches of crystalline vinorelbine monotartrate acetone solvate being produced according to Example 1 were analyzed for stability (i.e. batches no. 011213, no. 021213, and no. 010414). The samples were exposed to temperatures of 5° C. and 25° C. for three and six months, respectively. Batch no. 010414 was also exposed to a temperature of 40° C. (at 60%±2% relative humidity) for 15 days, 1 month, and two months, respectively.
Crystalline vinorelbine monotartrate hydrate being produced according to Example 5 were analyzed for stability. The samples were exposed to temperatures of 25° C. and 40° C. for three and six months, respectively.
In order to evaluate the thermostability and photostability of the compound the sample was exposed to a temperature of 40° C. for 2 weeks analyzed by HPLC.

CCC1=C[C@@H]2CN(C1)Cc1c([nH]c3ccccc13)[C@@](C(=O)OC)(c1cc3c(cc1OC)N(C)[C@H]1[C@@](O)(C(=O)OC)[C@H](OC(C)=O)[C@]4(CC)C=CCN5CC[C@]31[C@@H]54)C2.O=C(O)C(O)C(O)C(=O)O.O=C(O)C(O)C(O)C(=O)O [vinorelbine bitartrate, reference compound]
Photodegradation product (3,6-epoxy vinorelbine), % ([1]; exposure 0 min): 0.05% | Total impurities (excluding photodegradation product), % ([1]; exposure 0 min): 0.10% | Photodegradation product (3,6-epoxy vinorelbine), % ([1]; exposure 15 min): 0.16% | Total impurities (excluding photodegradation product), % ([1]; exposure 15 min): 0.10% | Photodegradation product (3,6-epoxy vinorelbine), % ([1]; exposure 30 min): 0.24% | Total impurities (excluding photodegradation product), % ([1]; exposure 30 min): 0.16% | Photodegradation product (3,6-epoxy vinorelbine), % ([1]; exposure 60 min): 0.35% | Total impurities (excluding photodegradation product), % ([1]; exposure 60 min): 0.20% | Photodegradation product (3,6-epoxy vinorelbine), % ([1]; exposure 120 min): 0.72% | Total impurities (excluding photodegradation product), % ([1]; exposure 120 min): 0.27% | Total degradation impurities ([2]; 1 week): 9.8%

vinorelbine monotartrate [amorphous vinorelbine monotartrate]
Degradation products (%) 3,6-epoxy vinorelbine ([3]; 15 days): 0.13% | Degradation products (%) Total ([3]; 15 days): 1.08% | Degradation products (%) vinorelbine N-oxide ([3]; 15 days): 0.33% | Degradation products (%) 3,6-epoxy vinorelbine ([3]; initial): LT 0.05% | Degradation products (%) Total ([3]; initial): 0.13% | Degradation products (%) vinorelbine N-oxide ([3]; initial): LT 0.05% | stability (in words) ([3]; exposure to elevated temperature and humidity for an extended period): unstable | degradation (in words) ([3]; incubation for two weeks at 40° C.): significant degradation

vinorelbine monotartrate acetone solvate
degradation (in words) ([3]; six months storage at 5° C.+3° C.): almost no degradation | degradation (in words) ([3]; six months storage at 25° C.±2° C.): almost no degradation | degradation (in words) ([3]; two months storage at 40° C.): only minimal degradation | Total degradation impurities ([2]; 1 week): LT 0.05% | Total degradation impurities ([2]; 3 weeks): 0.08% | Total degradation impurities ([2]; 8 weeks): 0.24% | chemical degradation (in words) ([2]; one week storage at 60° C.): didn't show any chemical degradation

vinorelbine monotartrate hydrate
Photodegradation product (3,6-epoxy vinorelbine), % ([1]; exposure 0 min): 0.03% | Total impurities (excluding photodegradation product), % ([1]; exposure 0 min): 0.10% | Photodegradation product (3,6-epoxy vinorelbine), % ([1]; exposure 15 min): 0.08% | Total impurities (excluding photodegradation product), % ([1]; exposure 15 min): 0.10% | Photodegradation product (3,6-epoxy vinorelbine), % ([1]; exposure 30 min): 0.14% | Total impurities (excluding photodegradation product), % ([1]; exposure 30 min): 0.10% | Photodegradation product (3,6-epoxy vinorelbine), % ([1]; exposure 60 min): 0.28% | Total impurities (excluding photodegradation product), % ([1]; exposure 60 min): 0.10% | Photodegradation product (3,6-epoxy vinorelbine), % ([1]; exposure 120 min): 0.44% | Total impurities (excluding photodegradation product), % ([1]; exposure 120 min): 0.17% | overall accumulation of degradation impurities ([3]; after 6 months at 25° C.): ≤ 0.02% | overall accumulation of degradation impurities ([3]; after 6 months at 40° C.): ≤ 0.15% | thermostability, degradation ([2]; one week storage at 60° C.): less than 0.10%
